The subject of experiment [1] is collagen I and III synthesis. Nature of the experiment: [3H]-Proline incorporation as measure of collagen deposition. It is filed as cell-based, human. From the text:
This human skin substrate consists of neonatal foreskin fibroblasts that secrete a functionally active extracellular matrix grown on a medical-grade nylon mesh cocultured with human neonatal foreskin keratinocytes that differentiate into a multilayered epidermis.
Quantifying proline incorporation can be used to measure potential collagen deposition stimulated by a test substance. This concept is the foundation for the following experiments.

Experiment [2] relates to PGE2 synthesis by 3T3 fibroblasts. Description: Inhibition of PGE2 synthesis by 3T3 fibroblasts (ELISA). The class given is cell-based. Conditions: for [PGE2]: 24 h. From the text: This Example establishes the anti-inflammatory potential of GC-100 by measuring the inhibition of PGE2 synthesis by 3T3 fibroblasts in cell culture.
The cells are nourished in a medium enriched with arachidonic acid which leads to increased secretion of eicosanoids into the medium.
The formation of prostaglandin PGE2 will be followed as a marker of eicosanoid synthesis, because it is a stable molecule secreted preferentially by 3T3 fibroblasts. The anti-inflammatory potential of an active ingredient may then be investigated by following the decrease in secretion of PGE2 in the culture medium.
Quantification of PGE2 will be achieved using an enzyme-linked immunosorbant assay (ELISA). In principle, the PGE2 expressed by the cells in culture medium will compete with enzyme-linked PGE2 for available antibody, which is a constant. The concentration of enzyme-linked PGE2 is also constant and quantified prior to testing. The enzyme linked to PGE2 prior to testing is acetylcholinesterase. Since the quantity of PGE2 expressed by 3T3 cells in culture will vary based on the concentration of GC-100 present, the amount of antibody available to bind to the enzyme-linked PGE2 versus that produced by the 3T3 cells assumes an inverse relationship that is dependent on Brownian motion. After eliminating unreacted PGE2 through washing, substrate is added that binds to the enzyme-PGE2-antibody complex to generate a yellow color that is strongly evident using spectrophotometer set at 412 nm. The amount of light transmitted through the test sample is directly proportional to the intensity of the color change and, consequently, to the concentration of PGE2-enzyme-antibody complex.
Create a mother solution (solution #1) containing complete DMEM, alcohol, and 2×10^5 3T3 fibroblasts for plating onto 25 cm^2 culture dishes. Using a compounding dilution technique, prepare the following solutions, using 5 mL of media per plate: • Solution #2: Solution #1 plus arachidonic acid (10^−3% P/V) • Solution #3: Solution #2 plus indomethacin (0,1,10^−3% P/V) • Solution #4: Solution #2 plus GC-100 0.5% • Solution #5: Solution #2 plus GC-100 1.0%
Incubate all preparations for 24 hours at 37° C. Recover the supernatant media, and if needed deep freeze it at −20° C. before quantification. Count the number of surviving cells using a coulter counter. Establish a calibration curve of the quantity of PGE2. Quantify the supernatant media using an enzyme-linked immunosorbant assay kit specific for PGE2 (Cayman), using a Dynotech microplate reader (MR500) with a filter set at 412 nm. Calculate the % inhibition of PGE2 synthesis. The results are shown in Table 4 and FIG. 10, which is a graph showing mean suppression of PGE2 concentration in test media comprising indomethacin or GC-100.
Background: ELISA stands for enzyme-linked immunosorbent assay.

Setting [3] is: DMEM + AA + Indomethacin, column A.
[4] abbreviates: DMEM + AA + Indomethacin, column B.
[5] abbreviates: DMEM + AA + Indomethacin, column C.

Turning to `O=C1O[C@H]([C@@H](O)CO)C(O)=C1O` [ascorbic acid], the “influence of ascorbic acid on proline incorporation” value in experiment [1] (higher than optimal concentrations of ascorbic acid) is recorded as “suppress proline incorporation”.

`COc1ccc2c(c1)c(CC(=O)O)c(C)n2C(=O)c1ccc(Cl)cc1` [Indomethacin, indomethacin, reference compound]: the “% change of PGE2 vs DMEM + AA, MEAN” value in experiment [2] (DMEM + AA + Indomethacin) is recorded as −87.2%. In addition, the “% change of PGE2 vs DMEM + AA” value is given as −91% in experiment [2] (setting [3]), −88% in experiment [2] (setting [4]) and −82.6% in experiment [2] (setting [5]). Moreover, the “[PGE2]” value in experiment [2] (setting [3]) was determined as 0.27 pg/mL; in experiment [2] (setting [4]), 0.35 pg/mL; in experiment [2] (setting [5]), 0.50 pg/mL. In addition, the “suppression of PGE2 expression” value in experiment [2] (indomethacin) came out at 87%.

`ClCc1ccccc1` [benzyl chloride]: the “proline incorporation relative to control levels” value in experiment [1] is recorded as “suppress proline incorporation below control levels”.

For the origin of these results see patent US11793746B2, “Intense skin hydration systems and methods” (priority 2020, dated 2023).
